Experimental data taken from patent US20060135440A1, “Use of ribose to alleviate rhabdomyolysis and the side effects of statin drugs” (priority 2004, published 2006).

How the values were obtained:
Type in all cases: in vivo, human
[1] = test system: statin drug-induced rhabdomyolysis patient; test: Patient with drug-induced rhabdomyolysis given ribose (case report)
Description: They were started on a statin drug. Within three months they were diagnosed with rhabdomyolysis resulting in chronic renal failure and symptoms of extreme fatigue and muscle pain. The patient was placed on five grams of ribose, twice daily, after symptoms had persisted for about four months. […] They stayed on the regimen for about three months. Upon cessation of ribose administration, the fatigue and pain slowly returned, but not as severe as had been previously experienced.

[2] = test system: patients with clinical statin-induced myalgias; test: Placebo-controlled pilot study of ribose on muscle pain in patients with statin-induced myalgias; settings: for Severity of symptoms, Mean (sd): scale 1=mild to 5=severe
Description: Thirty patients aged 20 to 80 years of age presently taking statins and showing clinical statin-induced myalgias were randomized in a six-week placebo-controlled study of the effect of ribose on muscle pain. Fifteen patients were given five grams of ribose twice a day to determine the improvement in clinical symptoms, using an objective patient questionnaire and physician interview. The primary symptom reported was muscle pain, but other symptoms commonly reported included fatigue, poor sleep, a decrease in mental clarity and a reduced sense of well-being. Fifteen patients presently taking statins were given five grams of glucose twice a day as a control. All patients were given a complete history and physical exam. The patient's assessment of muscle pain, soreness or cramping was graded on a scale of one to five, five being the most severe.
Exclusions: Statin-induced myopathy with elevated CPJK over twice normal • Statin-induced hepatopathy with elevated LFTs over twice normal Pregnancy • Insulin-dependant diabetes • Diseases known to be associated with myalgias, such as fibromyalgia, PMR, CTD, genetic or acquired myopathies • New drugs or supplements during the study period
Inclusions: • Patients on any FDA-approved statin at recommended doses. • Constant use of statin dose and any other drugs for at least four weeks prior to study entry
Ribose or glucose were given as a pill or powder and compliance was monitored by pill count or powder measurement on each visit, weekly during the four week study period. A questionnaire was developed to validate the study results.
The severity of symptoms were compared at each follow-up visit. Subjects were asked to rate the severity of symptoms on a scale from 1 to 5; 1=mild and 5=severe.

[3] = test system: patients with chronic fatigue syndrome or fibromyalgia syndrome; test: Pre- and post-ribose Visual Analog Scale assessment in chronic fatigue syndrome or fibromyalgia syndrome patients
Description: There is a cluster of diseases of unknown etiology that share some common symptoms. Included in this cluster are chronic fatigue syndrome, fibromyalgia syndrome and statin-induced myalgia. The most prominent symptoms is pain in the muscles, accompanied by pain in connective tissue (fibromyalgia), sleep disturbance, lack of mental clarity and feelings of well-being. In addition to the patients of Example 1 and 2, who presented with statin-induced myalgia, a mixed cohort of patients having given a physician's diagnosis of chronic fatigue syndrome or fibromyalgia syndrome were given a supply of D-ribose for self administration. Each patient served as his or her control, the results being reported as pre- and post-ribose administration. Compliance was estimated by the amount of the ribose supply remaining. Those patients having administered at least one-half of the 280 grams supply were included in the following summary. A total of 41 subjects were enrolled, of whom five were considered non-compliant and excluded from these analyses. Of the remaining 36 subjects, 78% were female, average age 48 years; 58% and 85% had been previously diagnosed with fibromyalgia and/or chronic fatigue syndrome. Twenty-nine subjects (81%) took a B-complex vitamin daily. The average length of time taking ribose was 25 days. The primary outcome measure was the initial versus final visit Visual Analog Scale (VAS) score: • 1. Visual Analog (well-being) Scale of 1-10 for five questions obtained before the first and after the last dose of ribose. • (A) How is your energy? (1=near dead and 10+excellent) • (B) How is your sleep? (1=no sleep and 10=8 hours of sleep a night without waking. • (C) How is your mental clarity? (1=brain dead and 10=good clarity) • (D) How bad is your pain? (1=very severe pain and 10=pain free) • (F) How is your overall sense of well-being? (1=near dead and 10=excellent) On taking the final dose, the patient was also asked in fill in: “much better, somewhat better, no change, somewhat worse and much worse.” The patients were also asked to comments on benefits or side effects. If they felt better, about how long did it take to feel better? Since the compliance was ascertained only by the amount of ribose remaining, the patients were asked to comment in more detail on their guesstimate of doses missed.

[4] = person, five grams of ribose twice daily, within one week
[5] = individualized response, ribose n = 12

O=C[C@H](O)[C@H](O)[C@H](O)CO [Ribose, D-ribose]
fatigue (patient report) [1, 4]: greatly reduced
muscle pain (patient report) [1, 4]: gone
symptoms after returning to the ribose regimen ([1]; ribose resumed a month after cessation, fatigue and pain had slowly returned): again experienced relief of symptoms
Severity of symptoms, Mean (sd) ([2]; Week 1, n = 15): 3.7 (0.8)
Severity of symptoms, Mean (sd) ([2]; Week 2, n = 13): 3.9 (0.8)
Severity of symptoms, Mean (sd) ([2]; Week 3, n = 12): 3.7 (0.8)
Severity of symptoms, Mean (sd) ([2]; Week 4, n = 12): 3.6 (1.0)
Severity of symptoms, Mean (sd) ([2]; Week 5, wash out period, n = 9): 3.4 (1.0)
Severity of symptoms, Mean (sd) ([2]; Week 6, wash out period, n = 8): 3.7 (0.8)
severity of symptoms at baseline ([2]; baseline, scale 1 to 5, placebo group 3.0): 3.7
global assessment of symptom improvement: patients classified as Improved ([2]; five grams ribose twice a day, 11 of 13 ribose patients, placebo 3 of 14 (21%)): 85%
patients reporting a change in symptoms at end of test period ([2]; four weeks, 10 of 12 remaining ribose patients, placebo 5 of 14 (36%), p=0.02): 83%
patients with More than 50% improvement [2, 5]: 36%
patients with No improvement or worse [2, 5]: 27%
patients with Some improvement [2, 5]: 73%
patients with No improvement or worse ([2]; individualized response, ribose n = 12, listed as ribose): 27%
average improvement greater than the placebo group ([2]; repeated measures analysis adjusted for baseline severity difference, p=0.35): 0.10 units per week
patients experiencing at least some improvement during the study ([3]; 23 of the 35 patients answering the general question): 65.7%
VAS Energy, Post- Mean (std) ([3]; 36 patients, post-ribose, scale 1-10, pre-ribose 3.8 (1.1), average 25 days on ribose): 5.5 (1.5)
VAS Well-being, Post- Mean (std) ([3]; 36 patients, post-ribose, scale 1-10, pre-ribose 4.3 (1.3)): 5.6 (1.5)
VAS Sleep, Post- Mean (std) ([3]; 36 patients, post-ribose, scale 1-10, pre-ribose 4.8 (1.6)): 6.0 (1.9)
VAS Mental Clarity, Post- Mean (std) ([3]; 36 patients, post-ribose, scale 1-10, pre-ribose 4.9 (1.5)): 5.7 (1.7)
VAS Pain, Post- Mean (std) ([3]; 36 patients, post-ribose, scale 1=very severe pain, 10=pain free, pre-ribose 4.9 (2.3)): 5.6 (2.2)
patients reporting no change to somewhat worse than at the beginning of the study ([3]; general question at final dose): three
